Reference: patent US7244727B2, “Fused bicyclic nitrogen-containing heterocycles” (Japan Tobacco Inc., priority 2002, dated 2007)

What was measured:
human DGAT1 = target: T1, human DGAT1 (Homo sapiens, UniProt O75907); assay: DGAT Scintillation Proximity Assay (SPA) with membranes of insect cells expressing human flagtag DGAT1; assay type: biochemical; conditions: read-out: hDGAT1 IC50
T1 construct: made in house; host or cells: insect cells (sf9, sf21 or High Five) infected with baculovirus; total cell membranes
T1 sequence (O75907 1-488): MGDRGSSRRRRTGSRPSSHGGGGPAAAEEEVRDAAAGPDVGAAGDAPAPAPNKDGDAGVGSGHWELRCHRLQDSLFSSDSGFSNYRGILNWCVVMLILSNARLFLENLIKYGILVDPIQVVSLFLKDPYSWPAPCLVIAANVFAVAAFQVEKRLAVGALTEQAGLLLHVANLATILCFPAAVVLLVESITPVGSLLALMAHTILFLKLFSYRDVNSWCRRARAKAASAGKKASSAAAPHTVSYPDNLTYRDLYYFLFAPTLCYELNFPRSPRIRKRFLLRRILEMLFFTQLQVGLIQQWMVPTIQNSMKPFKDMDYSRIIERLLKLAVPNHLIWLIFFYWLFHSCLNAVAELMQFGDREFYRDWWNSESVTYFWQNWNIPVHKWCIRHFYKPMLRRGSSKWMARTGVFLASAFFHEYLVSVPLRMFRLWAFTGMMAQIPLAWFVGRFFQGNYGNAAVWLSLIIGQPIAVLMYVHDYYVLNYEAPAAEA
Procedure: In such an assay human DGAT1 is cloned from a human liver cDNA library. PCR is used to add a restriction site and flag epitope at the most 5′ end and a restriction site at the 3′ end of the sequence. Thereafter, human flagtag (FT) DGAT1 baculovirus may be generated using a Bac-to-Bac Baculovirus Expression System® (Invitrogen). Insect cells (e.g., sf9, sf2 1, or High Five) are infected for 24 to 72 h and collected by centrifugation. Cell pellets are resuspended in homogenization buffer and lysed using a homogenization device, such as a Microfluidizer. Total cell membranes are collected by ultracentrifugation at 45,000 rpm for 1 h.
A small aliquot (0.2 μg/well) of membrane is incubated with 10 μM compound or mercuric chloride (as positive control for inhibition) in the presence of enzyme substrate, dioleoyl glycerol (200 μM) in 384 well plates, final volume 50 gL per well. […] The reaction is stopped by adding Wheat Germ Agglutinin (WGA) SPA beads (0.2 mg) in mercuric chloride. Cell membranes are allowed to couple to the beads overnight. The signal can be measured using, for example, a Chemiluminescence Image Plate Reader (CLIPR) or TopCount device.

Row | Structure (SMILES) | IC50 (human DGAT1) [nM] | melting point
1 | O=c1[nH]c2ncnc3c2n1C(c1ccc(Br)cc1)CO3 (stereo not drawn) [Example 1-35] | > 100 | > 220 °C
2 | Nc1ncnc2c1NC(c1ccc(Cl)c(Cl)c1)CO2 (stereo not drawn) [Example 1-36] | > 100 | 198 to 200 °C
3 | Nc1ncnc2c1NC(c1ccc(Cl)cc1Cl)CO2 (stereo not drawn) [Example 1-37] | > 100 | > 220 °C
4 | CC1(C)Oc2ncnc(N)c2N=C1c1ccc([C@H]2CC[C@H](CCC(N)=O)CC2)cc1 [Example 2-5] | 10 to 100 | 244 to 246 °C
5 | CC1(C)Oc2ncnc(N)c2NC1c1ccc([C@H]2CC[C@H](CCC(=O)O)CC2)cc1 (stereo partly drawn) [Example 2-6] | 10 to 100 | > 250 °C
6 | CC1(C)Oc2ncnc(N)c2NC1c1ccccc1 (stereo not drawn) [Example 2-8] | > 100 | > 220 °C
7 | CC1(C)Oc2ncnc3[nH]c(=O)n(c23)C1c1ccc(Br)cc1 (stereo not drawn) [Example 2-11] | > 100 | > 220 °C
8 | Nc1ncnc2c1N=C(c1ccc(Br)cc1)C1(CCCC1)O2 [Example 2-13] | > 100 | 184 to 186 °C
9 | Nc1ncnc2c1NC(c1ccc(Br)cc1)C1(CCCC1)O2 (stereo not drawn) [Example 2-14] | > 100 | 226 to 233 °C
10 | CC1(C)Oc2ncnc(N)c2NC1c1ccc(Cl)cc1 (stereo not drawn) [Example 2-19] | > 100 | > 230 °C
11 | Cc1ccc(C2Nc3c(N)ncnc3OC2(C)C)cc1 (stereo not drawn) [Example 2-20] | > 100 | > 230 °C
12 | CC1(C)Oc2ncnc(N)c2NC1c1ccc(F)cc1 (stereo not drawn) [Example 2-21] | > 100 | > 230 °C
13 | CC1(C)Oc2ncnc(N)c2NC1c1ccc(C2CCCCC2)cc1 (stereo not drawn) [Example 2-22] | > 100 | > 230 °C
14 | COc1ccc(C2Nc3c(N)ncnc3OC2(C)C)cc1 (stereo not drawn) [Example 2-24] | > 100 | 225 to 226 °C
15 | Cc1nc(N)c2c(n1)OC(C)(C)C(c1ccc(C3CCCCC3)cc1)=N2 [Example 2-26] | 10 to 100 | 226 to 227 °C
16 | CC1(C)Oc2ncnc(N)c2N=C1c1ccc(-c2ccncc2)cc1 [Example 2-28] | > 100 | > 250 °C
17 | CC1(C)Oc2ncnc(N)c2N=C1c1ccc(-c2cccnc2)cc1 [Example 2-29] | > 100 | 231 to 232 °C
18 | CN(C)c1ccc(-c2ccc(C3=Nc4c(N)ncnc4OC3(C)C)cc2)cc1 [Example 2-30] | > 100 | 210 to 211 °C
19 | CC1(C)Oc2ncnc(N)c2N=C1c1ccc(OC2CCCCC2)cc1 [Example 2-32] | > 100 | 174 to 175 °C
20 | CCOc1ccc(C2=Nc3c(N)ncnc3OC2(C)C)cc1 [Example 2-38] | > 100 | 189 to 190 °C
21 | CCOC(=O)C=C1CCC(c2ccc(C3=Nc4c(N)ncnc4OC3(C)C)cc2)CC1 (stereo not drawn) [Example 2-39] | > 100 | 207 to 208 °C
22 | CC1(C)Oc2ncnc(N)c2N=C1c1ccc(C2CCC(=CC(=O)O)CC2)cc1 (stereo not drawn) [Example 2-40] | < 10 | > 250 °C
23 | CC1CCC(c2ccc(C3=Nc4c(N)ncnc4OC3(C)C)cc2)CC1 (stereo not drawn) [Example 2-41] | > 100 | 201 to 209 °C
24 | CC1(C)Oc2ncnc(N)c2N=C1c1ccc(C2CCC(=CC(=O)NCc3ccccc3)CC2)cc1 (stereo not drawn) [Example 2-45] | 10 to 100 | 142 to 144 °C
25 | CCNC(=O)C=C1CCC(c2ccc(C3=Nc4c(N)ncnc4OC3(C)C)cc2)CC1 (stereo not drawn) [Example 2-47] | 10 to 100 | 229 to 230 °C
26 | CC(C)(C)OC(=O)CNC(=O)C=C1CCC(c2ccc(C3=Nc4c(N)ncnc4OC3(C)C)cc2)CC1 (stereo not drawn) [Example 2-52] | 10 to 100 | 212 to 215 °C
27 | CC1(C)Oc2ncnc(N)c2NC1c1ccc(-c2ccc(CC(=O)O)cc2)cc1 (stereo not drawn) [Example 2-54] | 10 to 100 | 267 °C (dec.)
